Patent publication EP0431076B1, “PENTACYCLIC TRITERPENOID COMPOUNDS AS TOPOISOMERASE INHIBITORS OR CELL DIFFERENTIATION INDUCERS” (RESEARCH TRIANGLE INSTITUTE, priority 1988, dated 1990)

Target: T1, DNA topoisomerase I (Homo sapiens, UniProt P11387)
T1 construct: DNA topoisomerase I was purified to homogeneity from chronic human leukemic cells; from tissue; host or cells: chronic human leukemic cells (endogenous enzyme, purified)
T1 sequence (P11387 1-765): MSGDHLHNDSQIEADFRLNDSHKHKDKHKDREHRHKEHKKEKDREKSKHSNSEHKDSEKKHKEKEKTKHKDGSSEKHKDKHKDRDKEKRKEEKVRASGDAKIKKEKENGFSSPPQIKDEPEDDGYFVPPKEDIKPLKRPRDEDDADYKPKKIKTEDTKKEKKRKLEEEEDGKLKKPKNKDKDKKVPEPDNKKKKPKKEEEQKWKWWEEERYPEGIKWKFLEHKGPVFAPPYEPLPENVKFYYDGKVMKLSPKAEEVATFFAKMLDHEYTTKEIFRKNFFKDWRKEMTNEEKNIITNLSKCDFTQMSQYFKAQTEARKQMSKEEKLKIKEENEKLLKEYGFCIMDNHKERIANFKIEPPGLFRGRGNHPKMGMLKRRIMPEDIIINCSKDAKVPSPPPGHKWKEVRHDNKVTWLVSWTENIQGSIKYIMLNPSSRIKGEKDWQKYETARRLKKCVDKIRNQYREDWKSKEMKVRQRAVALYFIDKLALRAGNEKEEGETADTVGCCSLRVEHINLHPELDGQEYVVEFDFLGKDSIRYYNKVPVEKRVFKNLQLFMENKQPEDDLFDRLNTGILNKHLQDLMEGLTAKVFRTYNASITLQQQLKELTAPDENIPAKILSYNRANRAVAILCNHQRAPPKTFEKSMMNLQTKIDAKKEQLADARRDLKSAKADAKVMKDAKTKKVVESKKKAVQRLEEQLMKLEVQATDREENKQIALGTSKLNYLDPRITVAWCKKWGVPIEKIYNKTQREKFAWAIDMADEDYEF
Assay: Topoisomerase I inhibition, supercoiled pBR 322 DNA relaxation assay
Type: biochemical
Settings: gel analysis, Figure 5
Text: Topoisomerase I inhibitory activity was monitored by using the supercoiled pBR 322 DNA relaxation assay according to a published procedure [Liu et al., Proc. Natl. Acad. Sci., U.S.A., 76, 3487 ([…])].
DNA topoisomerase I was purified to homogeneity from chronic human leukemic cells. Plasmid pBR 322 DNA was purified by phenol deproteinization of cleared lysates followed by CsCl/ethidium isopycnic centrifugation and gel filtration.

Structure (SMILES) | potency in topoisomerase I inhibition compared with standard camptothecin (in words) | potency in topoisomerase I inhibition relative to standard camptothecin (fold potency versus camptothecin)
CC(=O)O[C@@H]1CC[C@@]2(C)[C@@H](CC[C@]3(C)[C@@H]2CC=C2[C@@H]4[C@@H](C)[C@H](C)CC[C@]4(C)CC[C@]23C)[C@@]1(C)C(=O)O [B-1, β-boswellic acid acetate] | comparable potency | 
CC(=O)O[C@@H]1CC[C@@]2(C)[C@@H](CC[C@]3(C)[C@@H]2CC=C2[C@@H]4CC(C)(C)CC[C@]4(C)CC[C@]23C)[C@@]1(C)C(=O)O [A-1, α-boswellic acid acetate] |  | ~3 X
